Test results published in US20140186875A1, “NOVEL OPTICAL LABELING MOLECULES FOR PROTEOMICS AND OTHER BIOLOGICAL ANALYSIS” (Montana State University, priority 2007, published 2014).

Experiments:
[1] = Optical properties of the dyes (absorbance, emission, extinction coefficient, quantum efficiency); type: physicochemical
[2] = tested on: Glutathione S Transferase Omega1—GSTO1; test: Differential 2D gel analysis of developing rat brain proteins raised on high and low docosahexaenoic acid; type: in vivo; details: DHA enriched diet compared with adequate control diet, cytosolic brain fraction
Protocol: Each forebrain was ground using a pestle and mortar, previously brought to liquid nitrogen temperature in a sealed plastic bag with positive dry nitrogen gas pressure. After grinding of the tissue at liquid nitrogen temperature, […] sample of cell lysis buffer containing 20 mM Bicine, 5 mM magnesium acetate, 0.5% Nonidet P-40 and Roche Complete protease inhibitor—mini EDTA free, were added to about a 100 mg sample and mixed well in a 2 ml microcentrifuge tube. Sample fractionation—Crude nuclear fraction (P1) was removed by sedimentation at 1000×g for 10 min at room temp. The supernatant (S1) was removed and was ultra-centrifuged at 100,000×g at 4° C. for an hour in 2 ml polycarbonate tubes in a swinging bucket rotor. The cytosolic fraction S2 was separated. […] Protein concentrations of the cytosolic and membrane organelle fractions were assessed, using the Bio-Rad RCDC assay. […]
1st dimension separation—the sample was spread in a lane of a Bio-Rad Protean isoelectric focusing (IEF) cell tray, an 18 cm 3-10 non-linear IPG strip, or 3-7, or 6-11 IEF strip was put on top of it, covered with mineral oil and allowed to passively re-hydrate for one hr. […] The IPG strips were then transferred to an Ettan IPGphor and covered with mineral oil for monitored iso-electric focusing as follows, 3:30 hrs 300V, 2:30 hrs 1000V, 2:30 hrs 2500V and 7:30 hrs 3500V. […]

Compound | ε [1] | λ(abs) [1] | λ(ems) [1] | QE (QY) [1] | down-regulation of spot 2 (GSTO1) [2] | up-regulation of spot 1 (GSTO1) [2]
CN1/C(=C/C2=C([O-])C(=C/C3=[N+](C)c4ccccc4C3(C)C)/C2=O)C(C)(C)c2ccccc21 [Compound 220] | 280000 1·cm^−1·mol^−1 | 629 nm | 640 nm |  |  | 
CN(CCCCCC(=O)O)CCNC(=O)C(CS(=O)(=O)[O-])NC1=C(/C=C2/N(C)c3ccccc3C2(C)C)C(=O)/C1=C\C1=[N+](C)c2ccccc2C1(C)C (centres unmarked) [Compound 222] | 127300 1·cm^−1·mol^−1 | 644 nm | 657 nm | 2.9% |  | 
COc1cc(C(C)O)c([N+](=O)[O-])cc1OCCN(C)CCNC(=O)C(CS(=O)(=O)[O-])NC1=C(/C=C2/N(C)c3ccccc3C2(C)C)C(=O)/C1=C\C1=[N+](C)c2ccccc2C1(C)C (centres unmarked) [Compound 227] | 101400 1·cm^−1·mol^−1 | 644 nm | 657 nm | 2.9% |  | 
COc1cc(C(C)OC(=O)Oc2ccc([N+](=O)[O-])cc2)c([N+](=O)[O-])cc1OCCNC(=O)C(CS(=O)(=O)[O-])NC1=C(/C=C2/N(C)c3ccccc3C2(C)C)C(=O)/C1=C\C1=[N+](C)c2ccccc2C1(C)C (centres unmarked) [Compound 230] | 79400 1·cm^−1·mol^−1 | 646 nm | 661 nm | 3.3% |  | 
CC/C=C\C/C=C\C/C=C\C/C=C\C/C=C\C/C=C\CCC(=O)O [DHA, Docosahexaenoic acid] |  |  |  |  | 1.7 | 2.5
